Where two headings read alike, the source gives them in different places.
Assays:
[1] = system: ATQ-R4 (cytb M133I and L144S, parent 3D7); experiment: Cross-resistance EC50 assay, ATQ-R4; format: cell-based, Plasmodium falciparum; conditions: for EC50: Plasmodium falciparum, 3D7, SYBR green 72 hour assay, asynchronized parasites, 96-well or 1536-well format, ATQ-R4
Source text: (§1) To evaluate potential overlapping activity against known antimalarial drug targets, we performed dose-response studies with each compound against our assembled set of drug-resistant lines and their corresponding parents, in an asexual blood stage proliferation assay (Table 1). Comparisons were made to the drug-sensitive strain 3D7 when a parent was unavailable (TM90C2A, W2 and Dd2). As laboratories conducted EC50 assays with different strains and protocols, all comparisons were made between assays from the same laboratory and under the same assay conditions. Compounds displaying >5-fold EC50 shifts relative to the parent or sensitive strain were flagged as having potentially non-novel targets. Average fold shifts per strain ranged from 0.82 to 2.34, with a median of 1.23 indicating there was not common resistance to any one resistant clone. No resistance patterns were observed when classifying the compounds based on chemical structure, but this was not surprising given the diversity of compounds chosen. On the other hand, given that these confirmed compounds were derived from larger unconfirmed hit lists to which some filtration criteria may have been applied (for example, elimination of obvious dihydrofolate reductase inhibitors[32]), some[10][11][12][13] pre-existing bias may exist in the set. […]
(§2) Alternatively, a SYBR Green-based proliferation approach was used for the 72-h assay, as previously described. Briefly, a culture of either synchronized or asynchronous parasitized RBCs (0.3% parasitemia and 4% haematocrit) in screening medium (identical to supplemented medium above except no serum was added) was exposed to serial drug dilutions. Plates were incubated at 37 °C and gassed with 93% N2, 4% CO2 and 3% O2 for 72 h. Following incubation, 10 × SYBR Green I (Invitrogen; supplied in 10,000 × concentration) in lysis buffer ([…], 5 mM EDTA, 0.16% Saponin wt per vol and 1.6% Triton X vol per vol) was added to the wells and the plates were incubated overnight at room temperature before plate reading. EC50 assays were repeated three times, taking the average EC50 value from each assay set, and removing any outliers using a single iteration of Grubbs' test, eliminating values with z-scores above the critical z-value (α=0.05). The raw EC50 values for synchronized parasites assayed in a 384-well format are listed in Supplementary Data 4. The raw EC50 values for asynchronous parasites assayed in a 96 or 1536-well format are listed in Supplementary Data 5.
(§3) EC50 values for each strain were compared with those of the corresponding parent strain to determine fold-shift changes and identify resistance. To minimize the cause variance between assays, all comparisons were conducted between strains assayed under identical conditions. A one-way ANOVA followed by a Dunnet's post-test was conducted in GraphPad Prism to identify significant changes between the parent and resistant strain.

[2] = system: CYTb-G131S (cytb G131S, parent Dd2); experiment: Cross-resistance EC50 assay, CYTb-G131S; format: cell-based, Plasmodium falciparum; conditions: Plasmodium falciparum; SYBR green 72 hour assay; synchronized parasites; 384-well format; strain CYTb:G131S (Dd2 parent)
Source text: as §1, §2, §3

[3] = system: GNF156R (PfCARL L830V, S1076I and M81I, parent Dd2); experiment: Cross-resistance EC50 assay, GNF156R; format: cell-based; conditions: Plasmodium falciparum, SYBR green 72 hour assay, asynchronized parasites, 96-well or 1536-well format
Source text: as §1, §2, §3

3D7 = experiment: Cross-resistance EC50 assay, 3D7 parent / sensitive strain; format: cell-based; conditions: Plasmodium falciparum
Summary of the method: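 P. falciparum asexual blood-stage proliferation, parent/sensitive strain of each resistant clone; 48-h assay with rings (0.5% parasitemia, 2.0% haematocrit) in RPMI-1640/5% AlbuMAX, ^3H-hypoxanthine added at 24 h, normalized to no-drug and 2 μM artesunate controls; alternatively 72-h SYBR Green assay (0.3% parasitemia, 4% haematocrit). EC50s from triplicate fits.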

[4] = SYBR green 72 hour assay, asynchronized parasites, 96-well or 1536-well format, 3D7 parent, read-out: 3D7 (PARENT) EC50 (µM) Average EC50
[5] = SYBR green 72 hour assay, synchronized parasites, 384-well format, strain 3D7 (parent), read-out: 3D7 (PARENT) Average EC50
[6] = hypoxanthine 48-hour assay, synchronized parasites, 96-well format, strain 3D7 (parent), read-out: 3D7 (PARENT) Average EC50
[7] = hypoxanthine 48-hour assay, synchronized parasites, 96-well format, strain 3D7-C9-WT (parent of PfATP4 Mut3), read-out: 3D7-C9-WT (PARENT) Average EC50

OC(CNC1CCCCC1)Cn1c2ccc(I)cc2c2cc(I)ccc21 (stereo not drawn) [MMV665882]
EC50 [1]: 0.026 µM | EC50 [2]: 0.046 µM | EC50 [3]: 0.068 µM | EC50 (3D7; [4]): 0.023 µM | EC50 (3D7; [5]): 0.035 µM | EC50 (3D7; [6]): 0.075 µM | EC50 (3D7; [7]): 0.158 µM

COc1ccc(-c2nc(NC(=O)Cc3ccc4c(c3)OCCO4)sc2C)cc1 [MMV019719]
EC50 [1]: 0.203 µM | EC50 [2]: 0.261 µM | EC50 [3]: 0.347 µM | EC50 (3D7; [4]): 0.236 µM | EC50 (3D7; [5]): 0.2 µM | EC50 (3D7; [6]): 0.165 µM | EC50 (3D7; [7]): 0.132 µM

CCN(CC)CCn1c(=N)n(CC(O)c2ccc(Cl)c(Cl)c2)c2ccccc21.Cl (stereo not drawn) [MMV000248]
EC50 [1]: 0.177 µM | EC50 [2]: 0.367 µM | EC50 [3]: 0.432 µM | EC50 (3D7; [4]): 0.138 µM | EC50 (3D7; [5]): 0.236 µM | EC50 (3D7; [6]): 0.308 µM | EC50 (3D7; [7]): 0.399 µM

O=C(NC(c1ccccc1)c1ccc2cccnc2c1O)c1ccccc1 (stereo not drawn) [MMV666080]
EC50 [1]: 0.746 µM | EC50 [2]: 0.401 µM | EC50 [3]: 0.822 µM | EC50 (3D7; [4]): 0.723 µM | EC50 (3D7; [5]): 0.682 µM | EC50 (3D7; [6]): 0.845 µM | EC50 (3D7; [7]): 3.92 µM

O=C(Nc1ccccc1O)c1ccc(Oc2cccc(C(=O)Nc3ccccc3O)c2)cc1 [MMV665888]
EC50 [1]: 1.05 µM | EC50 [2]: 1.01 µM | EC50 [3]: 0.67 µM | EC50 (3D7; [4]): 0.295 µM | EC50 (3D7; [5]): 0.614 µM | EC50 (3D7; [6]): 1.16 µM

CCCOCc1cc(CN2CCN(c3cccc(Cl)c3)CC2)c(O)c2ncccc12 [MMV000787]
EC50 [1]: 1.44 µM | EC50 [2]: 0.632 µM | EC50 [3]: 1.63 µM | EC50 (3D7; [4]): 0.645 µM | EC50 (3D7; [5]): 0.631 µM | EC50 (3D7; [6]): 1.46 µM | EC50 (3D7; [7]): 0.935 µM

COc1cc(-c2nc(-c3ccccc3)c(-c3ccccc3)[nH]2)ccc1OCCN(C)C [MMV027496]
EC50 [1]: 0.305 µM | EC50 [2]: 0.322 µM | EC50 [3]: 1.8 µM | EC50 (3D7; [4]): 0.241 µM | EC50 (3D7; [5]): 0.118 µM | EC50 (3D7; [6]): 0.112 µM | EC50 (3D7; [7]): 0.084 µM

COc1cc(C(=O)ON=C(N)Cc2cccc3ccccc23)cc(OC)c1OC [MMV666687]
EC50 [1]: 0.784 µM | EC50 [2]: 0.492 µM | EC50 [3]: 0.611 µM | EC50 (3D7; [4]): 1 µM | EC50 (3D7; [5]): 0.89 µM | EC50 (3D7; [6]): 0.351 µM | EC50 (3D7; [7]): 0.294 µM

CCN(CC)S(=O)(=O)c1ccc(-c2csc(Nc3ccc(C)c(C)c3)n2)cc1 [MMV009108]
EC50 [1]: 2.44 µM | EC50 [2]: 0.494 µM | EC50 [3]: 1.5 µM | EC50 (3D7; [4]): 0.851 µM | EC50 (3D7; [5]): 0.759 µM | EC50 (3D7; [6]): 0.93 µM | EC50 (3D7; [7]): 1.11 µM

COc1ccccc1CNC(=O)CCn1c(=O)[nH]c2ccsc2c1=O [MMV019066]
EC50 [1]: 0.057 µM | EC50 fold-shift, ATQ-R4 vs parent ([1]; resistance, parent 3D7): 16 × | EC50 [2]: 0.149 µM | EC50 [3]: 0.008 µM | EC50 (3D7; [4]): 0.007 µM | EC50 (3D7; [5]): 0.168 µM | EC50 (3D7; [6]): 1.67 µM | EC50 (3D7; [7]): 2.17 µM

CNCc1ccc2nc(-c3coc(Cc4cc(Cl)ccc4OCC(C)C)n3)[nH]c2c1.Cl.Cl [MMV026596]
EC50 [1]: 0.303 µM | EC50 [2]: 0.443 µM | EC50 [3]: 0.414 µM | EC50 (3D7; [4]): 0.304 µM | EC50 (3D7; [5]): 0.321 µM | EC50 (3D7; [6]): 0.377 µM | EC50 (3D7; [7]): 0.472 µM

O=C(NCC(CCCN1CCC(c2c[nH]c3ccccc23)CC1)c1ccccc1)Nc1ccc(Cl)c(Cl)c1 (stereo not drawn) [MMV029272]
EC50 [1]: 9.56 µM | EC50 [2]: 0.92 µM | EC50 [3]: 0.332 µM | EC50 (3D7; [4]): 2.87 µM | EC50 (3D7; [5]): 0.17 µM | EC50 (3D7; [6]): 0.139 µM | EC50 (3D7; [7]): 0.115 µM

Cc1ccc(S(=O)(=O)n2cc(-c3ccnc(N)c3)c3cc(Br)cnc32)cc1 [MMV024114]
EC50 [1]: 1.99 µM | EC50 [2]: 1.68 µM | EC50 [3]: 2.9 µM | EC50 (3D7; [4]): 1.17 µM | EC50 (3D7; [5]): 0.418 µM | EC50 (3D7; [6]): 0.264 µM | EC50 (3D7; [7]): 0.219 µM

Nc1ccc(-c2nc3cc(Oc4ccc(Oc5ccc6[nH]c(-c7ccc(N)cc7)nc6c5)cc4)ccc3[nH]2)cc1 [MMV011895]
EC50 [1]: 0.545 µM | EC50 [2]: 0.328 µM | EC50 [3]: 0.126 µM | EC50 (3D7; [4]): 0.24 µM | EC50 (3D7; [5]): 0.169 µM | EC50 (3D7; [6]): 0.158 µM

COC(=O)c1ccc(C2C3=C(O)CC(c4ccc(F)cc4)CC3=Nc3ccccc3N2C(=O)c2ccccc2)cc1 (stereo not drawn) [MMV011438]
EC50 [1]: 0.379 µM | EC50 [2]: 0.336 µM | EC50 [3]: 0.842 µM | EC50 (3D7; [4]): 0.187 µM | EC50 (3D7; [5]): 0.229 µM | EC50 (3D7; [6]): 0.428 µM | EC50 (3D7; [7]): 0.513 µM

COc1cc(-c2nc(-c3ccccc3)c(-c3ccccc3)[nH]2)cc(OC)c1O [MMV020750]
EC50 [1]: 0.912 µM | EC50 [2]: 0.872 µM | EC50 [3]: 0.663 µM | EC50 (3D7; [4]): 0.575 µM | EC50 (3D7; [5]): 0.597 µM | EC50 (3D7; [6]): 0.342 µM | EC50 (3D7; [7]): 0.656 µM

Nc1ccc(-c2nc3cc(Cc4ccc5[nH]c(-c6ccc(N)cc6)nc5c4)ccc3[nH]2)cc1 [MMV665943]
EC50 [1]: 0.045 µM | EC50 [2]: 0.41 µM | EC50 [3]: 0.399 µM | EC50 (3D7; [4]): 0.034 µM | EC50 (3D7; [5]): 0.369 µM | EC50 (3D7; [6]): 0.316 µM | EC50 (3D7; [7]): 0.198 µM

Cl.c1ccc2c(NCCCCCCNc3c4c(nc5ccccc35)CCCC4)c3c(nc2c1)CCCC3 [MMV019555]
EC50 [1]: 0.08 µM | EC50 [2]: 0.237 µM | EC50 [3]: 0.22 µM | EC50 (3D7; 3D7, 48 h, read-out: 3D7 (PARENT) Average EC50): 0.087 µM | EC50 (3D7; 3D7, 48 h, read-out: 3D7-C9-WT (PARENT) Average EC50): 0.094 µM | EC50 (3D7; 3D7, 72 h, read-out: 3D7 (PARENT) Average EC50): 0.062 µM | EC50 (3D7; 3D7, 72 h, read-out: 3D7 (PARENT) EC50 (µM) Average EC50): 0.065 µM

Cc1cc(Nc2ccc(OCc3ccccc3)cc2)nc2cc(O)ccc12 [MMV007181]
EC50 [1]: 0.109 µM | EC50 [2]: 0.245 µM | EC50 [3]: 0.163 µM | EC50 (3D7; [4]): 0.086 µM | EC50 (3D7; [5]): 0.15 µM | EC50 (3D7; [6]): 0.343 µM | EC50 (3D7; [7]): 0.183 µM

Source: paper PMC4912613, “A broad analysis of resistance development in the malaria parasite” (Nature Communications, 2016)
